Reference: US10010527B2, “Active metabolite of 1-[(2-bromophenyl)sulfonyl]-5-methoxy-3-[(4-methyl-1-piperazinyl)methyl]-1H-indole dimesylate monohydrate and dimesylate dihydrate salt of active metabolite” (SUVEN LIFE SCIENCES LIMITED, priority 2014, dated 2018)

Test system: rats
Test: Radial arm maze (reversal of scopolamine induced amnesia)
Assay type: in vivo, rat
Settings: p.o.
Description: Example 4: Radial Arm Maze
The cognition enhancing properties of formula (I) and formula (II) of this invention were estimated by using this model.
Radial arm maze consists of a central hub of 45 centimeter diameter. Each arm was of dimension 42.5×15×24 centimeter. The maze was elevated to a height of 1 meter above the ground. The animals were placed on a restricted diet until they reached approximately 85% of their free feeding weight. During this diet restriction period animals were habituated to the novel feed (pellets). Once the rats reached approximately 85% of their free feeding weight rats were habituated to the maze on the 1st and 2nd day. […] Animals were randomized on day 2. On the subsequent days the treatment was given as per the allotment. Each animal was introduced into the maze individually for a period of 10 minutes. The arms were baited only once and the animal had to learn the rule that repeated arm entries would not be rewarded. The trial ended once the rat had visited 16 arms or 10 minutes were over or all the pellets were eaten. The arm entries were recorded using the software.

Structure (SMILES) | Reversal of Scopolamine Induced amnesia - Effective dose range | Reversal of Scopolamine Induced amnesia - Effective dose range (dimesylate dihydrate)
COc1ccc2c(c1)c(CN1CCNCC1)cn2S(=O)(=O)c1ccccc1Br [Example 1, 1-[(2-Bromophenyl)sulfonyl]-5-methoxy-3-[(1-piperazinyl)methyl]-1H-indole] | 10-20 mg/kg, p.o. | –
COc1ccc2c(c1)c(CN1CCNCC1)cn2S(=O)(=O)c1ccccc1Br [Example 2, 1-[(2-Bromophenyl)sulfonyl]-5-methoxy-3-[(1-piperazinyl)methyl]-1H-indole dimesylate dihydrate] | – | 5-20 mg/kg, p.o.
